Patent publication US9642869B2, “Boronic acid derivatives and therapeutic uses thereof” (Rempex Pharmaceuticals, Inc., priority 2013, dated 2017)
Like-named read-outs stand apart in the source and are kept apart here.

Key:
KPC-2 KP1004 = test: Aztreonam potentiation (MPC@4); format: cell-based; conditions: minimum BLI concentration inhibiting growth with 4 μg/mL aztreonam
KP1004 KPC-2 = test: Biapenem potentiation (MPC@1); format: cell-based; conditions: minimum BLI concentration inhibiting growth with 1 μg/mL biapenem
Protocol: (§1) Biapenem was present in the test medium at 1 μg/mL. […] Table 3 summarizes the BLI potency of biapenem potentiation (MPC@1) for two strains overexpressing class A (KPC) and class D (OXA-48) carbapenemases. Biapenem MIC for each strain is also shown.

OXA-48 KP1086 = test: Biapenem potentiation (MPC@1); format: cell-based; conditions: minimum BLI concentration inhibiting growth with 1 μg/mL biapenem
Protocol: as §1

SHV-5 ec308 [1] = test: Aztreonam potentiation (MPC@4); format: cell-based; conditions: minimum BLI concentration inhibiting growth with 4 μg/mL aztreonam
ECL1002 [2] = format: cell-based; conditions: minimum BLI concentration inhibiting growth with tigemonam at 4 μg/mL
[3] = Intravenous pharmacokinetics; format: in vivo; conditions: rat, plasma, rats, IV infusion over 0.5 hours, read-out: Free Cl (converted)
Protocol: Rats (n=3 per compound) were administered by a single infusion. IV doses were infused over 0.5 hours via an indwelling femoral vein cannula. Plasma (˜0.3 mL) samples were collected from each rat at designated time points up to 24 hours. Blood samples were centrifuged within 5 min of collection at 12000 g for 5 min to obtain plasma. The plasma samples were stored at −80° C. until analyzed. Data were analyzed using WinNonlin.

SHV-12 = SHV-12 (Klebsiella pneumoniae, UniProt P0AD64, E235K/G234S/L31Q); test: Inhibition of nitrocefin cleavage by purified enzyme (Ki); format: biochemical
In short: (§2)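 Readout: nitrocefin hydrolysis, A490 recorded every 10 sec over 10 min. Enzyme and inhibitor (varied concentrations) preincubated 10 min, RT, in reaction buffer before substrate addition.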

OXA-48 = OXA-48 (Klebsiella pneumoniae, UniProt Q6XEC0); test: as above; format: biochemical; conditions: nitrocefin reporter substrate, 10 min preincubation; read-out: Ki (OXA-48, NCF)
In short: as §2

ECL1002 [4] = test: Aztreonam potentiation (MPC@4); format: cell-based; conditions: minimum BLI concentration inhibiting growth with 4 μg/mL aztreonam
CTX-M-15 KP1009 [5] = test: Aztreonam potentiation (MPC@4); format: cell-based; conditions: minimum BLI concentration inhibiting growth with 4 μg/mL aztreonam
CTX-M-15 KP1009 [6] = format: cell-based
CMY-6 EC1010 [7] = test: Aztreonam potentiation (MPC@4); format: cell-based; conditions: minimum BLI concentration inhibiting growth with 4 μg/mL aztreonam
SHV-5 ec308 [8] = format: cell-based; conditions: minimum BLI concentration inhibiting growth with tigemonam at 4 μg/mL
CTX-M-14 KP1005 [9] = format: cell-based
TEM-10 ec302 [10] = format: cell-based
CTX-M-14 KP1005 [11] = test: Aztreonam potentiation (MPC@4); format: cell-based; conditions: minimum BLI concentration inhibiting growth with 4 μg/mL aztreonam
TEM-10 ec302 [12] = test: Aztreonam potentiation (MPC@4); format: cell-based; conditions: minimum BLI concentration inhibiting growth with 4 μg/mL aztreonam
CTX-M-14 = CTX-M-14 (Escherichia coli, UniProt Q9L5C7); test: Inhibition of nitrocefin cleavage by purified enzyme (Ki); format: biochemical; conditions: nitrocefin reporter substrate, 10 min preincubation; read-out: Ki (CTX-M-14, NCF)
In short: as §2

KPC-2 = KPC-2 (Klebsiella pneumoniae, UniProt Q9F663); test: as above; format: biochemical; conditions: nitrocefin reporter substrate, 10 min preincubation; read-out: Ki (KPC-2, NCF)
In short: as §2

P99 = P99 (Enterobacter cloacae, UniProt P05364); test: as above; format: biochemical; conditions: nitrocefin reporter substrate, 10 min preincubation; read-out: Ki (P99, NCF)
In short: as §2

CMY-6 EC1010 [13] = format: cell-based; conditions: minimum BLI concentration inhibiting growth with tigemonam at 4 μg/mL

Sequence of SHV-12 (P0AD64 22-286 L31Q/G234S/E235K): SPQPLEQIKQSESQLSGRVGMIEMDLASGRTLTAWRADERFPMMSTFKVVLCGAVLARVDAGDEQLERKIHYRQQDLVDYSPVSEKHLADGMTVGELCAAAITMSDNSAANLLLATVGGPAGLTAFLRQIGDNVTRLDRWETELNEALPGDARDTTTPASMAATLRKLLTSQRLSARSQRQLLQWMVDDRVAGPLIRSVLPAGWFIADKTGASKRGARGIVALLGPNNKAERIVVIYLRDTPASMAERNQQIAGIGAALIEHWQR
Sequence of KPC-2 (Q9F663 25-293 limits assumed): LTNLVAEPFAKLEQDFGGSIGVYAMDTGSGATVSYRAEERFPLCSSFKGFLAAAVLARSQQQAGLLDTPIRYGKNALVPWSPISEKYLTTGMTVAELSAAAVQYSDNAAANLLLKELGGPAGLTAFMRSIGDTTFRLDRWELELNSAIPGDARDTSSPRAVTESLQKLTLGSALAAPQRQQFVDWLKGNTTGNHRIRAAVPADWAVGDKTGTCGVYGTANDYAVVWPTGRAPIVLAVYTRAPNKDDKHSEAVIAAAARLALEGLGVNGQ
Sequence of OXA-48 (Q6XEC0 23-265 limits assumed): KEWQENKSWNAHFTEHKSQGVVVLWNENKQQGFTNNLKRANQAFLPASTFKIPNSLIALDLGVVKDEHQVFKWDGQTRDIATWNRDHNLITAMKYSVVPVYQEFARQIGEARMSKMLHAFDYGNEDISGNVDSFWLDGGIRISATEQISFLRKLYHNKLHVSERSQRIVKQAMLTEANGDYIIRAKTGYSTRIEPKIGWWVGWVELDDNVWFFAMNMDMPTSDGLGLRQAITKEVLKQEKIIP
Sequence of P99 (P05364 21-381): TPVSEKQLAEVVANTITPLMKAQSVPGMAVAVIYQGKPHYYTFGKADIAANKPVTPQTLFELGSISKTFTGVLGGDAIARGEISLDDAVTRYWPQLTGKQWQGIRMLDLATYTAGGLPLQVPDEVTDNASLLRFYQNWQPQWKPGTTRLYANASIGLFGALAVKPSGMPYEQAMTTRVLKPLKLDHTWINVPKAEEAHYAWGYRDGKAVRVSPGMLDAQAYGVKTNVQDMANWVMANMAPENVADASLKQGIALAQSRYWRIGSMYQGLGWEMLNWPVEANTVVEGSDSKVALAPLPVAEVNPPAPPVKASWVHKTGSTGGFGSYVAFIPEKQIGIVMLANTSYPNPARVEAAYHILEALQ
Sequence of CTX-M-14 (Q9L5C7 entry or part of it): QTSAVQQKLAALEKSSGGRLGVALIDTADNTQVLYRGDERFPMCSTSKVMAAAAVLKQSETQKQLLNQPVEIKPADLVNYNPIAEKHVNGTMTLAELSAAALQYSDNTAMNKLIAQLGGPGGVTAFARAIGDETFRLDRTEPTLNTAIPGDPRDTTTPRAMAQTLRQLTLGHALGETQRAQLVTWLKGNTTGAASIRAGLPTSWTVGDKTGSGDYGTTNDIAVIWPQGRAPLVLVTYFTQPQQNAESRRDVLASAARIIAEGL

Compound | AZT MPC4 KPC-2 KP1004 (KPC-2 KP1004) | BPM MPC1 KP1004 KPC-2 (KP1004 KPC-2) | BPM MPC1 OXA-48 KP1086 (OXA-48 KP1086) | AZT MPC4 SHV-5 ec308 (SHV-5 ec308 [1]) | TIG MPC4 ECL1002 (ECL1002 [2]) | Ki (OXA-48) [nM] | AZT MPC4 ECL1002 (ECL1002 [4]) | AZT MPC4 CTX-M-15 KP1009 (CTX-M-15 KP1009 [5]) | TIG MPC4 CTX-M-15 KP1009 (CTX-M-15 KP1009 [6]) | AZT MPC4 CMY-6 EC1010 (CMY-6 EC1010 [7]) | TIG MPC4 SHV-5 ec308 (SHV-5 ec308 [8]) | TIG MPC4 CTX-M-14 KP1005 (CTX-M-14 KP1005 [9]) | AZT MPC4 CTX-M-14 KP1005 (CTX-M-14 KP1005 [11]) | AZT MPC4 TEM-10 ec302 (TEM-10 ec302 [12]) | Ki (CTX-M-14) [nM] | Ki (SHV-12) [nM] | Ki (KPC-2) [nM] | Ki (P99) [nM] | TIG MPC4 CMY-6 EC1010 (CMY-6 EC1010 [13]) | further results
NC(=O)CC(=O)N[C@H]1Cc2cccc(C(=O)O)c2OB1O [Compound 16, (R)-3-(3-amino-3-oxopropanamido)-2-hydroxy-3,4-dihydro-2H-benzo[e][1,2]oxaborinine-8-carboxylic acid] | Y (MIC of 1 μg/mL to 10 μg/mL) | X (MIC of less than 1 μg/mL) | Y (MIC of 1 μg/mL to 10 μg/mL) | X (MIC of less than 1 μg/mL) | X (MIC of less than 1 μg/mL) | < 1 | X (MIC of less than 1 μg/mL) | X (MIC of less than 1 μg/mL) | X (key: X: MIC of less than 1 μg/mL; Y: MIC of 1 μg/mL to 10 μg/mL; Z: MIC of greater than 10 μg/mL) | X (MIC of less than 1 μg/mL) | Y (MIC of 1 μg/mL to 10 μg/mL) | Y (key: X: MIC of less than 1 μg/mL; Y: MIC of 1 μg/mL to 10 μg/mL; Z: MIC of greater than 10 μg/mL) | – | – | – | – | – | – | – | clearance ([3]; dose 10 mg/kg): 14.5 mL/min/kg; Ki (SHV-12; nitrocefin reporter substrate, 10 min preincubation, read-out: Ki (SHV-12, NCF)): < 1 nM
Nc1nnc(C(=O)N[C@H]2Cc3cccc(C(=O)O)c3OB2O)o1 [Compound 20, (R)-3-(5-amino-1,3,4-oxadiazole-2-carboxamido)-2-hydroxy-3,4-dihydro-2H-benzo[e][1,2]oxaborinine-8-carboxylic acid] | Y (MIC of 1 μg/mL to 10 μg/mL) | X (MIC of less than 1 μg/mL) | Y (MIC of 1 μg/mL to 10 μg/mL) | X (MIC of less than 1 μg/mL) | X (MIC of less than 1 μg/mL) | 1 to 10 | X (MIC of less than 1 μg/mL) | X (MIC of less than 1 μg/mL) | X (key: X: MIC of less than 1 μg/mL; Y: MIC of 1 μg/mL to 10 μg/mL; Z: MIC of greater than 10 μg/mL) | X (MIC of less than 1 μg/mL) | X (MIC of less than 1 μg/mL) | Y (key: X: MIC of less than 1 μg/mL; Y: MIC of 1 μg/mL to 10 μg/mL; Z: MIC of greater than 10 μg/mL) | Y (MIC of 1 μg/mL to 10 μg/mL) | Y (MIC of 1 μg/mL to 10 μg/mL) | 1 to 10 | 1 to 10 | > 10 | 1 to 10 | X (MIC of less than 1 μg/mL) | TIG MPC4 TEM-10 ec302 (TEM-10 ec302 [10]): Y (key: X: MIC of less than 1 μg/mL; Y: MIC of 1 μg/mL to 10 μg/mL; Z: MIC of greater than 10 μg/mL)
CNC(=O)CC(=O)N[C@H]1Cc2cccc(C(=O)O)c2OB1O [Compound 21, (R)-2-hydroxy-3-(3-(methylamino)-3-oxopropanamido)-3,4-dihydro-2H-benzo[e][1,2]oxaborinine-8-carboxylic acid] | Y (MIC of 1 μg/mL to 10 μg/mL) | X (MIC of less than 1 μg/mL) | Y (MIC of 1 μg/mL to 10 μg/mL) | X (MIC of less than 1 μg/mL) | X (MIC of less than 1 μg/mL) | < 1 | X (MIC of less than 1 μg/mL) | X (MIC of less than 1 μg/mL) | Y (key: X: MIC of less than 1 μg/mL; Y: MIC of 1 μg/mL to 10 μg/mL; Z: MIC of greater than 10 μg/mL) | X (MIC of less than 1 μg/mL) | Y (MIC of 1 μg/mL to 10 μg/mL) | Y (key: X: MIC of less than 1 μg/mL; Y: MIC of 1 μg/mL to 10 μg/mL; Z: MIC of greater than 10 μg/mL) | Y (MIC of 1 μg/mL to 10 μg/mL) | Y (MIC of 1 μg/mL to 10 μg/mL) | 1 to 10 | < 1 | > 10 | 1 to 10 | X (MIC of less than 1 μg/mL) | –
O=C(CSC1CNC1)N[C@H]1Cc2cccc(C(=O)O)c2OB1O [Compound 22, (R)-3-(2-(azetidin-3-ylthio)acetamido)-2-hydroxy-3,4-dihydro-2H-benzo[e][1,2]oxaborinine-8-carboxylic acid] | X (MIC of less than 1 μg/mL) | X (MIC of less than 1 μg/mL) | Y (MIC of 1 μg/mL to 10 μg/mL) | X (MIC of less than 1 μg/mL) | X (MIC of less than 1 μg/mL) | 1 to 10 | X (MIC of less than 1 μg/mL) | X (MIC of less than 1 μg/mL) | X (key: X: MIC of less than 1 μg/mL; Y: MIC of 1 μg/mL to 10 μg/mL; Z: MIC of greater than 10 μg/mL) | X (MIC of less than 1 μg/mL) | Y (MIC of 1 μg/mL to 10 μg/mL) | Y (key: X: MIC of less than 1 μg/mL; Y: MIC of 1 μg/mL to 10 μg/mL; Z: MIC of greater than 10 μg/mL) | X (MIC of less than 1 μg/mL) | Y (MIC of 1 μg/mL to 10 μg/mL) | 1 to 10 | < 1 | > 10 | 1 to 10 | X (MIC of less than 1 μg/mL) | clearance ([3]; dose 20 mg/kg): 9.5 mL/min/kg
